Data: patent US20160015725A1, “METHODS OF CONTROLLING TUMOR BIOENERGETICS NETWORKS” (THE WISTAR INSTITUTE OF ANATOMY AND BIOLOGY, priority 2012, published 2016)

How the values were obtained:
[1] = system: FF2508 or MRC5 normal primary human fibroblasts; test: ATP production in normal fibroblasts; assay type: cell-based
Experimental: Intracellular ATP concentrations were measured by the luciferin—luciferase method using an ATP measuring kit (Biochain). The ATP concentration in each extract was measured with a microplate luminometer (Beckman Coulter) against standard ATP solutions used as reference. In some experiments, PC3 or LN229 cells were preincubated with sodium pyruvate for 7 h in the presence of vehicle or Gamitrinib before determination of ATP production.

LN229 cells [2] = test: ROS production, H2-DCFA labeling; assay type: cell-based, human; conditions: cytotoxic or non-cytotoxic concentrations, various time intervals
mTORC1 = mTORC1 signaling in tumor cells, Western blotting; assay type: cell-based, human
Experimental: For Western blotting, protein lysates were prepared from the different cell types in RIPA Buffer (150 mM NaCl, 1.0% Triton X-100, 0.5% sodium deoxycholate, 0.1% SDS, 50 mM Tris, pH 8.0) containing EDTA-free Protease Inhibitor Cocktail (Roche) and Phosphatase Inhibitor Cocktail 2 and 3 (Sigma Aldrich). Equal amounts of protein lysates were separated by SDS gel electrophoresis, transferred to PVDF membranes and incubated with primary antibodies of various specificities. Protein bands were detected by chemiluminescence.

LN229 cells [3] = test: Cell viability by MTT; assay type: cell-based, human; conditions: Gamitrinib combined with 2-DG vs each agent alone
Experimental: (§1) Various cell types were seeded in triplicate onto 96-well plates at 4×10^3 cells/well, treated with vehicle, Gamitrinib or 17-AAG (0-20 μM) for 12 h, and analyzed for changes in metabolic activity by an MTT assay. For determination of apoptosis, LN229 cells ([…]) were labeled for annexin V and propidium iodide (PI) (BD Biosciences), and analyzed by multiparametric flow cytometry (BD).

BRAF WT melanoma cells = test: Melanoma cell viability by MTT, BRAF WT; assay type: cell-based, human
Experimental: as §1

[4] = system: mutant BRAF melanoma cells; test: 3D organotypic spheroids, mutant BRAF; assay type: cell-based, human; conditions: collagen-embedded, 72 h
Experimental: (§2) For analysis of tumor cell survival in 3D organotypic cultures, melanoma spheroids were prepared as previously described. Briefly, 50 μl aliquots of the various melanoma cell types (5×10^4 cells/ml) were seeded onto 96-well plates coated with 1.5% agar (Difco, Sparks, Md.) in PBS. Spheroids were allowed to form for 72 h and then embedded in 100 μl of bovine collagen type I (Organogenesis, Canton, Mass.). Spheroids were overlaid with 100 μl of Tu2% growth medium and treated with inhibitors for 72 hours. Quantification of live vs. dead cells under the various conditions tested was performed by staining the melanoma spheroids after 72 h of treatment with calcein-AM (live) and Topro-3 (dead) (Invitrogen) for 1 h (data not shown).

WT BRAF spheroids = test: 3D organotypic spheroids, WT BRAF; assay type: cell-based, human; conditions: collagen-embedded, 72 h
Experimental: as §2

LN229 cells [5] = test: Apoptosis by annexin V / PI flow cytometry; assay type: cell-based, human; conditions: HK-II silenced cells vs control transfectants
Experimental: as §1

With `CO[C@H]1/C=C\C=C(/C)C(=O)NC2=CC(=O)C(NCCCCCC[P+](c3ccccc3)(c3ccccc3)c3ccccc3)=C(C[C@@H](C)C[C@H](OC)[C@H](O)[C@@H](C)/C=C(\C)[C@@H]1OC(N)=O)C2=O` [Gamitrinib] the ATP production [1] was “did not change ATP production”, the “production of reactive oxygen species (ROS)” value (LN229 cells [2]) was “had no effect on production of reactive oxygen species (ROS)” and the “phosphorylation of mTOR, 4EBP1 and p70S6 (mTORC1)” value (mTORC1) was “concentration dependent suppression of phosphorylation of mTOR, and its downstream kinases 4EBP1 and p70S6”. The “tumor cell killing, combined with 2-DG” value (LN229 cells [3]) was “increased tumor cell killing”, the IC50 (BRAF WT melanoma cells) was 6 ± 1.4 µM and the “cell killing in 3D spheroids” value [4] was “efficiently killed”. The “concentrations that killed cells in 3D spheroids” value [4] was 1 to 3 µM, the “cell death in 3D spheroids” value (WT BRAF spheroids) was “resistant to cell death” and the “Annexin V labeling” value (LN229 cells [5]) was “increased Annexin V labeling”.
